Results: paper PMC7832312, “Enhancing the Physiochemical Properties of Puerarin via L-Proline Co-Crystallization: Synthesis, Characterization, and Dissolution Studies of Two Phases of Pharmaceutical Co-Crystals” (International Journal of Molecular Sciences, 2021)

How the values were obtained:
[1] = test system: CT-26 cancer cell lines; test: Cytotoxicity evaluation by MTT assay, CT-26; type: cell-based, murine; settings: CT-26, culturing 24 h
Method: (§1) CT-26 and HEK-293 cell line was purchased from American Type Culture Collection (Manassas, VA, USA). The cell lines were cultured in RPMI 1640 (for CT-26) or DMEM (for HEK-293) containing 10% fetal bovine serum (FBS, Zhejiang Tianhang Biotechnology Co. Ltd., Hangzhou, China) and 1% penicillin/streptomycin (Zhejiang Tianhang Biotechnology Co. Ltd., Hangzhou, China). Cells grew as a monolayer and were detached upon confluence using trypsin (0.5% w/v in PBS, Zhejiang Tianhang Biotechnology Co. Ltd., Hangzhou, China). The cells were harvested from the cell culture medium by incubating in trypsin solution for 3 min. The cells were centrifuged, and the supernatant discarded. A 3 mL portion of serum-supplemented cell culture medium was added to neutralize any residual trypsin. The cells were re-suspended in serum-supplemented RPMI 1640 (for CT-26) or DMEM (for HEK-293) at a concentration of 5 × 10^4 cells per 1 mL. Cells were cultured at 37 °C and 5% CO2 for MTT studies.
(§2) The CT-26 or HEK-293 cells were seeded at a density of 1 × 10^4 cells per well in 100 µL of complete RPMI 1640 (CT-26) or DMEM (for HEK-293), and cultured for 16 h for attachment. The culture medium was then replaced by a serum-free medium containing various concentrations of pristine PUE, I, and II. […] After incubating the cells at 37 °C for 4 h, the MTT solution was removed and DMSO (100 μL) added to dissolve the formazan crystals formed, and the microplates were agitated for 5 min at a medium rate before the spectrophotometric measurement at a wavelength of 570 nm on a microplate reader. […] The relative cell viability (%) related to control cells was calculated by the formula below: V%=[A]experimental−[A]blank/[A]control−[A]blank×100% where V% is the percentage of cell viability, [A]experimental is the absorbance of the wells culturing the treated cells, [A]blank is the absorbance of the blank, and [A]control is the absorbance of the wells culturing untreated cells.

[2] = test system: HEK-293 cell lines; test: Cytotoxicity evaluation by MTT assay, HEK-293; type: cell-based, human; settings: HEK-293, culturing 24 h
Method: as §1, §2

[3] = Dissolution rate measurement (UV, 250 mL medium, 150 RPM, 2 h, 37 °C); type: physicochemical; settings: for Time-dependent dissolution rate: 37 °C
Method: The solubility and dissolution studies of pure PUE, I, and II were measured using a Thermo Scientific Evolution 300 UV spectrometer in deionized water at pH 7.0, gastrointestinal tract at pH 1.2, and phosphate buffer at pH 6.8 solution at 37 °C. The concentration was calculated utilizing a standard curve, which was made by measuring the absorbance of different concentrations at their λmax. A superfluity sum of the sample was added to 10 mL of H2O medium, pH 1.2 and pH 6.8 phosphate, respectively.
The oversaturated solution was stirred at 500 RPM by magnetic stirring at 37 °C for 24 h and the suspension was filtered through Whatman’s […] syringe channel, diluted sufficiently and the absorbance was measured at their λmax. For the dissolution rate, the sample was specifically poured into 250 mL pH 7.0 water, pH 1.2 gastrointestinal tract, and pH 6.8 phosphates medium and then stirred at 150 RPM for 2h at 37 °C. Each solution was measured by the absorbance at λmax. At customary interims, the solution was replenished with 3 mL of the respective blank solution to maintain an overall steady volume.

| SMILES | cytotoxicity (MTT cell viability) [1] | cytotoxicity (MTT cell viability) [2] | Time-dependent dissolution rate ([3]; Water, 5 min) [mg/mL] | Time-dependent dissolution rate ([3]; Water, 10 min) [mg/mL] | Time-dependent dissolution rate ([3]; Water, 15 min) [mg/mL] | Time-dependent dissolution rate ([3]; Water, 20 min) [mg/mL] | Time-dependent dissolution rate ([3]; Water, 25 min) [mg/mL] | Time-dependent dissolution rate ([3]; Water, 30 min) [mg/mL] | Time-dependent dissolution rate ([3]; Water, 40 min) [mg/mL] | Time-dependent dissolution rate ([3]; Water, 50 min) [mg/mL] | Time-dependent dissolution rate ([3]; Water, 60 min) [mg/mL] | Time-dependent dissolution rate ([3]; Water, 80 min) [mg/mL] | Time-dependent dissolution rate ([3]; Water, 100 min) [mg/mL] | Time-dependent dissolution rate ([3]; Water, 120 min) [mg/mL] | Time-dependent dissolution rate ([3]; pH 1.2, 5 min) [mg/mL] | Time-dependent dissolution rate ([3]; pH 1.2, 10 min) [mg/mL] | Time-dependent dissolution rate ([3]; pH 1.2, 15 min) [mg/mL] | Time-dependent dissolution rate ([3]; pH 1.2, 20 min) [mg/mL] | Time-dependent dissolution rate ([3]; pH 1.2, 25 min) [mg/mL] | Time-dependent dissolution rate ([3]; pH 1.2, 30 min) [mg/mL] | other results |
| --- | --- | --- | --- | --- | --- | --- | --- | --- | --- | --- | --- | --- | --- | --- | --- | --- | --- | --- | --- | --- | --- |
| O=C(O)[C@@H]1CCCN1.O=c1c(-c2ccc(O)cc2)coc2c([C@@H]3O[C@H](CO)[C@@H](O)[C@H](O)[C@H]3O)c(O)ccc12 [I, [PUE][PRO]] | negligible cytotoxicity | negligible cytotoxicity | 0.220 | 0.343 | 0.452 | 0.533 | 0.591 | 0.674 | 0.767 | 0.945 | 1.045 | 1.373 | 1.503 | 1.645 | 0.013 | 0.035 | 0.122 | 0.192 | 0.249 | 0.356 | Time-dependent dissolution rate ([3]; pH 1.2, 40 min): 0.588 mg/mL; Time-dependent dissolution rate ([3]; pH 1.2, 50 min): 0.711 mg/mL; Time-dependent dissolution rate ([3]; pH 1.2, 60 min): 0.958 mg/mL; Time-dependent dissolution rate ([3]; pH 1.2, 80 min): 1.159 mg/mL; Time-dependent dissolution rate ([3]; pH 1.2, 100 min): 1.383 mg/mL; Time-dependent dissolution rate ([3]; pH 1.2, 120 min): 1.603 mg/mL; Time-dependent dissolution rate ([3]; pH 6.8, 5 min): 0.207 mg/mL; Time-dependent dissolution rate ([3]; pH 6.8, 10 min): 0.291 mg/mL; Time-dependent dissolution rate ([3]; pH 6.8, 15 min): 0.384 mg/mL; Time-dependent dissolution rate ([3]; pH 6.8, 20 min): 0.493 mg/mL; Time-dependent dissolution rate ([3]; pH 6.8, 25 min): 0.570 mg/mL; Time-dependent dissolution rate ([3]; pH 6.8, 30 min): 0.664 mg/mL; Time-dependent dissolution rate ([3]; pH 6.8, 40 min): 0.786 mg/mL; Time-dependent dissolution rate ([3]; pH 6.8, 50 min): 0.850 mg/mL; Time-dependent dissolution rate ([3]; pH 6.8, 60 min): 0.918 mg/mL; Time-dependent dissolution rate ([3]; pH 6.8, 80 min): 1.183 mg/mL; Time-dependent dissolution rate ([3]; pH 6.8, 100 min): 1.265 mg/mL; Time-dependent dissolution rate ([3]; pH 6.8, 120 min): 1.303 mg/mL |
| CCO.O.O.O=C(O)[C@@H]1CCCN1.O=c1c(-c2ccc(O)cc2)coc2c([C@@H]3O[C@H](CO)[C@@H](O)[C@H](O)[C@H]3O)c(O)ccc12.O=c1c(-c2ccc(O)cc2)coc2c([C@@H]3O[C@H](CO)[C@@H](O)[C@H](O)[C@H]3O)c(O)ccc12 [II, [PUE]2[PRO]∙EtOH∙(H2O)2] | negligible cytotoxicity | negligible cytotoxicity | 0.131 | 0.210 | 0.281 | 0.457 | 0.567 | 0.701 | 1.450 | 2.110 | 2.490 | 2.840 | 3.203 | 3.410 | 0.171 | 0.240 | 0.337 | 0.417 | 0.479 | 0.534 | Time-dependent dissolution rate ([3]; pH 1.2, 40 min): 1.005 mg/mL; Time-dependent dissolution rate ([3]; pH 1.2, 50 min): 1.342 mg/mL; Time-dependent dissolution rate ([3]; pH 1.2, 60 min): 1.489 mg/mL; Time-dependent dissolution rate ([3]; pH 1.2, 80 min): 1.683 mg/mL; Time-dependent dissolution rate ([3]; pH 1.2, 100 min): 1.923 mg/mL; Time-dependent dissolution rate ([3]; pH 1.2, 120 min): 2.005 mg/mL; dissolution rate compared with the other forms ([3]; pH 1.2, pH 6.8, H2O pH 7.0): higher dissolution rate than both I and PUE; Time-dependent dissolution rate ([3]; pH 6.8, 5 min): 0.121 mg/mL; Time-dependent dissolution rate ([3]; pH 6.8, 10 min): 0.212 mg/mL; Time-dependent dissolution rate ([3]; pH 6.8, 15 min): 0.352 mg/mL; Time-dependent dissolution rate ([3]; pH 6.8, 20 min): 0.446 mg/mL; Time-dependent dissolution rate ([3]; pH 6.8, 25 min): 0.537 mg/mL; Time-dependent dissolution rate ([3]; pH 6.8, 30 min): 0.861 mg/mL; Time-dependent dissolution rate ([3]; pH 6.8, 40 min): 1.059 mg/mL; Time-dependent dissolution rate ([3]; pH 6.8, 50 min): 1.503 mg/mL; Time-dependent dissolution rate ([3]; pH 6.8, 60 min): 2.210 mg/mL; Time-dependent dissolution rate ([3]; pH 6.8, 80 min): 2.723 mg/mL; Time-dependent dissolution rate ([3]; pH 6.8, 100 min): 3.138 mg/mL; Time-dependent dissolution rate ([3]; pH 6.8, 120 min): 3.370 mg/mL |
